Laboratory results published in US8309606B2, “Compounds for use in the treatment of autoimmune diseases, immuno-allergical diseases and organ or tissue transplantation rejection” (Novaremed Limited, priority 2002, dated 2012).

Tested on: spleen cells±ConA
Test: Proliferation responses of splenocytes ±Con A, [3H]thymidine incorporation
Assay type: cell-based, mice
Settings: for Con A1 / Con A2 / No Con A: incorporated radioactivity
Protocol: Spleen cells obtained from native or concanavalin A (Con A)-treated mice were examined in-vitro for their response to T-cell-dependent mitogens. Cells were plated in quadruplicate in 96-well, flat-bottom, microtiter plates (4×10^5 cells/0.2 ml/well) in RPMI-1640 medium supplemented with 5% heat inactivated FCS, 2 mM L-glutamine, 100 U/ml penicillin, […] streptomycin and various concentrations of compound 10 ([…]). All plates were incubated for 48 h in humidified atmosphere of 5% CO2 in air at 37° C., and then pulsed for 18 h with […] ^3[H] thymidine. Cells from each microculture were harvested on fiberglass filters using a multiharvester, and incorporated radioactivity was measured using standard scintillation techniques.

## CC(CO)COCC(C)OCC(C)OCC(C)OCC(C)OCC(C)OCC(C)OCC(C)OCC(C)OCC(C)OCC(C)OCC(C)OCC(C)OCC(C)OCC(C)OCC(C)OCC(C)OCC(Cc1ccccc1)NC(=O)CCc1ccc(O)cc1 (stereo not shown) [Compound 10]
100 pg/ml
  Con A1: 1280
  Con A2: 3481
  No Con A: 271
1 ng/ml
  Con A1: 733
  Con A2: 3609
  No Con A: 284
100 ng/ml
  Con A1: 880
  Con A2: 2489
  No Con A: 274
1 μg/ml
  Con A1: 986
  Con A2: 2156
  No Con A: 333
100 μg/ml
  Con A1: 598
  Con A2: 1380
  No Con A: 170
Incubation with compound (Table 1)
  effect on the proliferation of the splenocytes: significant inhibition
